Activity calls are given as the source filed them.
Columns and labels:
cells = type: functional, cell-based
[1] = target: T1, Nuclear receptor subfamily 0 group B member 1 (Homo sapiens, UniProt P51843); type: functional, cell-based;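 further: HEK293T cells transfected with SF-1 and DAX-1 plus StAR promoter luciferase reporter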
T1 sequence (P51843 whole entry): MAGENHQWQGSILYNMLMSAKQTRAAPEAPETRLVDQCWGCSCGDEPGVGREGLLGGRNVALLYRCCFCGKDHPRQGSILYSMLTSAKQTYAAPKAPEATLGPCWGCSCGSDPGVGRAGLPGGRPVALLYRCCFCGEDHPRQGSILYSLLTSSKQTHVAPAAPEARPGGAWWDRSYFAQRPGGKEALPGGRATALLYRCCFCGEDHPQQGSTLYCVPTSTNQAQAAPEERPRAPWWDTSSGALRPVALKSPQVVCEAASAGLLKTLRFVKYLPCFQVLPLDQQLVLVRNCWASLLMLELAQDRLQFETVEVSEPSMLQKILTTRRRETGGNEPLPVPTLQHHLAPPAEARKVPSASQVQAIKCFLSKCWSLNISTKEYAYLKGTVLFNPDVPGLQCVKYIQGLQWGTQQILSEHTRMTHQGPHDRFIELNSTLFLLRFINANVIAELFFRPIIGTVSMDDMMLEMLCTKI

[2] = NIH-3T3 fibroblast cytotoxicity, dose response, cytotoxicity control, cell-based, fluorescence, Alamar Blue, secondary assay (AID 2327); type: functional;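 further: NIH-3T3 mouse fibroblasts cultured with fluconazole at 8 µg/mL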
[3] = fluconazole-exposed Candida albicans growth modulators – fluorescence, retest, confirmation (AID 2467); type: functional, cell-based
[4] = Trypanosoma cruzi growth suppression in host cells – NIH3T3 host cells, beta-gal luminescence, confirmation (AID 2044); type: functional, cell-based;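 further: intracellular parasites grown in NIH/3T3 mouse fibroblasts as host cells; luminescent beta-galactosidase reporter signal from transgenic T. cruzi replicating inside host cells; inhibitors lower the luminescence signal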
[5] = NIH3T3 cell viability loss – ATP luminescence, mouse fibroblasts, counter-screen, dose response (AID 2010); type: functional, cell-based;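 further: cells exposed to compound for about 90 hours before reading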
[6] = blockers of HIV-1 envelope-mediated cell-cell fusion – cherry-pick, dose response (AID 652057); type: functional, cell-based
[7] = viability loss in CEM21 cells – cell-based, CellTiter-Glo luminescence, cherry-picked, cytotoxicity control for viral fusion inhibitor project, dose response (AID 652042); type: functional;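 further: potency for signal decrease meaning cytotoxicity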
[8] = blockers of HIV-1 ZM109 envelope-driven cell-cell fusion – HeLa effector, CEM target cells, luciferase, cherry-pick, dose response (AID 652058); type: functional, cell-based;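 further: luciferase signal from HIV-1 Env mediated cell-cell fusion of effector and target cells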
[9] = off-target signal loss in HeLa-CEM21 co-culture – HeLa F-luc CTL cells, cherry-picked, counter-screen for HIV-1 Env fusion inhibitor project, dose response (AID 652040); type: functional, cell-based;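 further: potency for signal decrease marking cytotoxic or nonspecific inhibition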
[10] = HIV-1 AD8 envelope cell-cell fusion blockers – cherry-pick, dose response (AID 652062); type: functional, cell-based;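 further: luciferase signal from cell-cell fusion driven by HIV-1 clade B AD8 Env; potency is for inhibitors of fusion seen as a drop in luminescence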
Protein S100-A4 = Protein S100-A4 (Homo sapiens, UniProt P26447); test: human S100A4 peptide interaction inhibition curves – biochemical, fluorescence polarization, cherry-picked hits, dose response (AID 687001); type: functional
Protein S100-A4, sequence (P26447 whole entry): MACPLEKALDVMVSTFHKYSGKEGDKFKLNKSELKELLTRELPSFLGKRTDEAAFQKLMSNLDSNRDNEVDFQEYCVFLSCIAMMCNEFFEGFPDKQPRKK

[11] = Luminescence Cell-Based Dose Confirmation HTS to Identify Activators of 5'UTR Stem-Loop Driven Alpha-Synuclein mRNA Translation in H4 Neuroglioblastoma Cells. [Related pubchem assays: 1829 (Project Summary), 1814 (Primary HTS)]; type: functional
[12] = Luminescence Cell-Based Dose Response HTS to Identify Activators of Luciferase Translation or Activity in H4 […] Cells. [Related pubchem assays: 1829 (Project Summary), 1814 (Primary HTS)]; type: functional
H4 = test: Luminescence Cell-Based Dose Response HTS to Identify Activators of 5'UTR Stem-Loop Driven Prion Protein mRNA Translation in H4 Neuroglioblastoma Cells. [Related pubchem assays: 1829 (Project Summary), 1814 (Primary HTS)]; type: functional; details: Homo sapiens
[13] = target: T2, Replicative DNA helicase DnaB (Mycobacterium tuberculosis, UniProt P9WMR3); test: DnaB intein splicing inhibitors, dose response, biochemical, cell-free fluorescence (AID 449749); type: functional
T2 sequence (P9WMR3 whole entry): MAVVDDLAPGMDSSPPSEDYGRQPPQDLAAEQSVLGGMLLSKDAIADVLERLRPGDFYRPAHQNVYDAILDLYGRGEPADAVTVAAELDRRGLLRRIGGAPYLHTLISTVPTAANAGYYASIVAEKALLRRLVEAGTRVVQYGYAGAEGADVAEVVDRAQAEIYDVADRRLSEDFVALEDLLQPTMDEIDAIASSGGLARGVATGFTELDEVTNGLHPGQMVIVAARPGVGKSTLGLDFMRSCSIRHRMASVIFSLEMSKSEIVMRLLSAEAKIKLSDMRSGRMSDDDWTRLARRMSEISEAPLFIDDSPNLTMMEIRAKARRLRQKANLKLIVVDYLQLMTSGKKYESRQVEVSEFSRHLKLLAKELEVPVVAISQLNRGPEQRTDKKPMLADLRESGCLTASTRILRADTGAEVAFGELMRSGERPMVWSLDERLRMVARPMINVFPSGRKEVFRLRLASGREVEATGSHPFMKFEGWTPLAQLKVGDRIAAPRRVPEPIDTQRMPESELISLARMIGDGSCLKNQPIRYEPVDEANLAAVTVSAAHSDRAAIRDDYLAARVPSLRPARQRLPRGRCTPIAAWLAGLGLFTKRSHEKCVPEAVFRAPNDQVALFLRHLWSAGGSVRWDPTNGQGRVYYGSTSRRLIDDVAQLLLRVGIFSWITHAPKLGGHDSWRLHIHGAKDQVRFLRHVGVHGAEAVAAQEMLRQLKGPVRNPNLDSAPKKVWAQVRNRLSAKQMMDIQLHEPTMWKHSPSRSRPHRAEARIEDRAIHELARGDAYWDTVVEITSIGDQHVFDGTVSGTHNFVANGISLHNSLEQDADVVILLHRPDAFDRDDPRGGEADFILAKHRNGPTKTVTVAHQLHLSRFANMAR

[14] = target: Heat shock protein HSP 90-alpha (Homo sapiens, UniProt P07900); type: functional, organism-based
Protein RecA = target: T3, Protein RecA (Mycobacterium tuberculosis, UniProt P9WHJ3); test: Fluorescence Cell-Free Homogeneous Dose Retest to Identify Inhibitors of RecA-Intein Splicing Activity. [Related pubchem assays (depositor defined):AID2097, AID2223, AID489010, AID492950]; type: functional
T3 sequence (P9WHJ3 whole entry): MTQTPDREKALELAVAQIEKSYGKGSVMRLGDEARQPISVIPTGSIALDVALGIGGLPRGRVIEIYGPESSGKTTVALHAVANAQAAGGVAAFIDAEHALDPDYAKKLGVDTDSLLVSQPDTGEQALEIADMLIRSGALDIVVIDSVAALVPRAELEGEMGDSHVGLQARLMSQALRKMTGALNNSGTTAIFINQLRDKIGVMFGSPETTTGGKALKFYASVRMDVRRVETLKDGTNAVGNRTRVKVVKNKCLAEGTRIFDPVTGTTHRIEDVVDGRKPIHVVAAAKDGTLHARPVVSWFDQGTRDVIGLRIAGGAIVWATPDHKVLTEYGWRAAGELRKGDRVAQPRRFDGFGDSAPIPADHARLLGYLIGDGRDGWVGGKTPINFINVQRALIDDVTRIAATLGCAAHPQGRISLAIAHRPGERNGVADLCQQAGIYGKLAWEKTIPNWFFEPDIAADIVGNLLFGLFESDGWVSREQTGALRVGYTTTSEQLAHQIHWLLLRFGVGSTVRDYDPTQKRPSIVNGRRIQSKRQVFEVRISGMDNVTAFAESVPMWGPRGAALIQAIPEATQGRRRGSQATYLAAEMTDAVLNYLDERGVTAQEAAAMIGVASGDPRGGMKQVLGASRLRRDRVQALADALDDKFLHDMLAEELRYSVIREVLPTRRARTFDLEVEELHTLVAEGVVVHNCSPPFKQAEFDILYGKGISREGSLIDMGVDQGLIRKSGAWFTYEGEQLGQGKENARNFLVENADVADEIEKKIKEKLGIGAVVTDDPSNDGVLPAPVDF

[15] = Fluorescence-based cell-based high throughput dose response assay for inhibitors of the interaction of nucleotide-binding oligomerization domain containing 2 (NOD2) and the receptor-interacting serine-threonine kinase 2 (RIPK2).; type: functional; details: Homo sapiens
[16] = reduced cellular PGC1a acetyl-lysine signal – cell-based, cherry-picked samples, dose response (AID 720514); type: functional;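 further: potency may reflect raised or lowered acetylation signal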
HeLa = test: viability loss in HeLa cells – cell-based, ATP luminescence, cherry-pick samples, cytotoxicity control, dose response (AID 687004); type: functional; details: Homo sapiens
[17] = decrease of insulin promoter-GFP reporter – imaging, high-content screening, mouse beta cells (AID 1628); type: functional; details: MIN6
[18] = MIN6 cell viability loss – mouse insulinoma, cytotoxicity control, dose response (AID 2122); type: functional;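 further: confirmatory high-throughput counterscreen run to flag cytotoxic compounds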
[19] = microbe, parasite or virus in culture; type: functional; details: Mycobacterium tuberculosis
[20] = general mammalian cell viability loss – inhibitor set, cherry-pick, set 2, cytotoxicity control for miR-122 modulator project, dose response (AID 720697); type: functional, cell-based
[21] = target: Photoreceptor-specific nuclear receptor (Homo sapiens, UniProt Q9Y5X4); type: functional, cell-based;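 further: CHO-S cells with Gal4-NCOR and VP16-NR2E3 two-hybrid luciferase reporter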
Photoreceptor-specific nuclear receptor, sequence (Q9Y5X4 whole entry, the tested form may be a part): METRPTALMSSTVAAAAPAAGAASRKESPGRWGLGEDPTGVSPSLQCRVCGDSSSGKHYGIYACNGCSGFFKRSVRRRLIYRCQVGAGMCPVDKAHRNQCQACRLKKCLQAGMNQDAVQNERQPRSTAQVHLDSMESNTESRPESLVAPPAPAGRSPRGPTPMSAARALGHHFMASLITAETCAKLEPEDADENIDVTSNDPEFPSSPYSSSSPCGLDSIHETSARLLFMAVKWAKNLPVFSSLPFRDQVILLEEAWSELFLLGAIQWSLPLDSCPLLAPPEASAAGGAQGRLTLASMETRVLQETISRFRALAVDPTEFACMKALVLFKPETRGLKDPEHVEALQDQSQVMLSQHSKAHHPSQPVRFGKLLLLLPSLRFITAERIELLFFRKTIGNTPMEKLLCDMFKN

Vero = test: viability loss in Vero cells – cell-based, plate reader, cherry-pick samples, cytotoxicity control, dose response (AID 687020); type: functional; details: Chlorocebus sabaeus
[22] = target: T4, Sentrin-specific protease 8 (Homo sapiens, UniProt Q96LD8); type: functional
T4 sequence (Q96LD8 whole entry): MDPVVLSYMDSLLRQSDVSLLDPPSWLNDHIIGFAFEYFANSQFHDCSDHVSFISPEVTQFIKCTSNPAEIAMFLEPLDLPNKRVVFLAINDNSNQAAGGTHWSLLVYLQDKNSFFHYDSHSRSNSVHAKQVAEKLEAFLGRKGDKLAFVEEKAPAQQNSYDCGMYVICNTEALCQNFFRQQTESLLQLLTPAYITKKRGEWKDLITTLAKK

[23] = target: T4, Sentrin-specific protease 8; type: functional; remark: listed apart in the source
[24] = ATP-based viability loss in HEK293T cells – cell-based, CellTiter-Glo luminescence, cherry-picked samples, set 4, cytotoxicity control, dose response (AID 743441); type: functional; details: HEK293
Beta-lactamase [25] = target: Beta-lactamase (Salmonella choleraesuis (strain SC-B67), UniProt Q5J463); test: Epi-absorbance-based counterscreen for selective VIM-2 inhibitors: dose response biochemical high throughput screening assay to identify inhibitors of TEM-1 serine-beta-lactamase.
Beta-lactamase (Salmonella choleraesuis (strain SC-B67), UniProt Q5J463), sequence (Q5J463 whole entry): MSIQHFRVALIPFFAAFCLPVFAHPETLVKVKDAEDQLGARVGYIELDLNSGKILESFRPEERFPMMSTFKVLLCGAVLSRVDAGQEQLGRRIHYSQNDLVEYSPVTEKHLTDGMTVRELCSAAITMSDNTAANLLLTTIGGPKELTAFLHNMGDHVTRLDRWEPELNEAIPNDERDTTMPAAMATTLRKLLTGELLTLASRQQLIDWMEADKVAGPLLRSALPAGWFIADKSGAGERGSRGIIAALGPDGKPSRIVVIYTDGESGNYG

Beta-lactamase [26] = target: T5, Beta-lactamase (Pseudomonas aeruginosa, UniProt Q79MP6); test: inhibition of IMP-1 beta-lactamase activity – biochemical, epi-absorbance, selectivity assay for VIM-2 inhibitor project, dose response (AID 1920)
T5 sequence (Q79MP6 whole entry): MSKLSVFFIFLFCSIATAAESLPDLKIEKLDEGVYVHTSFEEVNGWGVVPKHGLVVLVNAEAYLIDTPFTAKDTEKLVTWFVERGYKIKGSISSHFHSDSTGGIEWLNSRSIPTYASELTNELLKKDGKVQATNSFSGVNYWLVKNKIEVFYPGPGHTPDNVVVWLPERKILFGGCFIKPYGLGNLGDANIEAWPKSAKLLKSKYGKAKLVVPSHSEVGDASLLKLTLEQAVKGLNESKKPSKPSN

Beta Lactamase [27] = target: T6, Beta Lactamase (Pseudomonas aeruginosa, UniProt Q932Y6); test: concentration-dependent VIM-2 enzyme inhibition – biochemical, epi-absorbance readout, selective inhibitors, dose response (AID 1919)
T6 sequence (Q932Y6 whole entry): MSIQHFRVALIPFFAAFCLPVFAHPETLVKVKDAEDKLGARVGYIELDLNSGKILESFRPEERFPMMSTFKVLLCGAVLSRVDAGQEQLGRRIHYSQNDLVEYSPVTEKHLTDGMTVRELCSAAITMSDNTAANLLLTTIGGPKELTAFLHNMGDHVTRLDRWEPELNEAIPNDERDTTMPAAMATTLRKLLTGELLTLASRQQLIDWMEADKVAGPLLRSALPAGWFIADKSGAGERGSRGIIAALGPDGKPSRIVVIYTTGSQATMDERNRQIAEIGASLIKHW

Beta-lactamase [28] = target: T5, Beta-lactamase; test: […] counterscreen for selective VIM-2 inhibitors: dose response biochemical high throughput screening assay to identify inhibitors of IMP-1 metallo-beta-lactamase.
Beta Lactamase [29] = target: T6, Beta Lactamase; test: VIM-2 CCF2 hydrolysis inhibition, assay artifact filter – biochemical, FRET readout, CCF2 substrate, artefact control for selective VIM-2 inhibitor project, dose response (AID 1926)
[30] = target: DNA dC->dU-editing enzyme APOBEC-3A (Homo sapiens, UniProt P31941); test: A3A deaminase inhibition for selectivity – biochemical, dose response (AID 504722); type: functional
DNA dC->dU-editing enzyme APOBEC-3A, sequence (P31941 whole entry): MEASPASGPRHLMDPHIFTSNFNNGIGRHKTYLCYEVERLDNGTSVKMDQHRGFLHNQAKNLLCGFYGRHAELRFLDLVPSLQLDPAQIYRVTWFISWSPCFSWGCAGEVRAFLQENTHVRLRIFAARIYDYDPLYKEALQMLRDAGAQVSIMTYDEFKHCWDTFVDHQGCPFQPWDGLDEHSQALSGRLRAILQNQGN

[31] = target: DNA dC->dU-editing enzyme APOBEC-3G (Homo sapiens, UniProt Q9HC16); test: Dose Response confirmation of small molecule APOBEC3G DNA Deaminase Inhibitors via a fluorescence-based single-stranded DNA deaminase assay. [Related pubchem assays (depositor defined):AID493012, AID493028]; type: functional
DNA dC->dU-editing enzyme APOBEC-3G, sequence (Q9HC16 whole entry): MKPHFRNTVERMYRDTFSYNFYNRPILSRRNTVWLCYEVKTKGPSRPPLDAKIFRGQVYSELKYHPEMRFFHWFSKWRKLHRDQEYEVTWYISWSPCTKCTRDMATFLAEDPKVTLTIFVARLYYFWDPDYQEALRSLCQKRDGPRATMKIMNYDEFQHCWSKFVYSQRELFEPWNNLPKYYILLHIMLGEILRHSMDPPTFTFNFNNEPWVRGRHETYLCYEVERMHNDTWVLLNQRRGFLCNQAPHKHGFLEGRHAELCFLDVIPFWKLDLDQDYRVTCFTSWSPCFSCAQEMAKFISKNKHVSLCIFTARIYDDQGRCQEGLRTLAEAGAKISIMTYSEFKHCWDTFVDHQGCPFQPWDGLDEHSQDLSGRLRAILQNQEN

HEK293 = test: EBV LMP1 TES2 canonical NF-kB signalling blockers – cell-based, HEK293, luciferase, cherry-pick, dose response (AID 588343); type: functional; details: Homo sapiens

COc1ccccc1NS(=O)(=O)c1cc(NC(=O)c2ccc(NC(C)=O)cc2)ccc1N1CCOCC1
IC50 (cells): > 67.5 µM (inactive) | IC50 [1]: > 67.5 µM (inactive)

O=C(COc1ccc(Cl)cc1Cl)N1CCCN(C(=O)COc2ccc(Cl)cc2Cl)CC1
EC50 [2]: > 150 µM (inactive) | EC50 [3]: 2.18 µM (active) | EC50 [4]: 1.39 µM (active) | EC50 [5]: > 30 µM (not active) | AC50 [6]: 3.52 µM (active) | AC50 [7]: 68.3 µM (active) | AC50 [8]: 3.44 µM (active) | AC50 [9]: 5.48 µM (active) | AC50 [10]: 3.24 µM (active)

Cc1cc(C)c(S(=O)(=O)NCc2ccc3c(c2)cc(C)n3C)c(C)c1
AC50 (Protein S100-A4): 10.7 µM (active)

O=c1oc(-c2ccccc2)cc(Cl)c1Cl
EC50 [11]: > 120 µM (not active) | EC50 [12]: > 120 µM (not active) | EC50 (H4): > 60 µM (not active) | AC50 [13]: 10.5 µM (active) | AC50 [14]: 2.64 µM (active) | EC50 (Protein RecA): 4.74 µM (active) | IC50 [15]: 1.15 µM (active) | AC50 [16]: 11.2 µM (active)

COc1cccc(-c2cn(CC[C@@H]3CC[C@@H](NC(C)=O)[C@H](CO)O3)nn2)c1
AC50 (HeLa): > 52 µM (inactive)

COc1ccc(-c2oc3ncnc(NCCCN4CCOCC4)c3c2-c2ccc(OC)cc2)cc1
IC50 [17]: 0.898 µM (active) | IC50 [18]: > 16 µM (inactive) | CC50 [19]: 24.8 µM (active) | AC50 [20]: 1.51 µM (active)

CCOC(=O)N1CCN(C(=O)c2ccc(S(=O)(=O)Nc3ccc(C)cc3)cc2)CC1
IC50 [21]: 5.96 µM (active)

COc1ccc(C)cc1N(CC(=O)Nc1ccc(S(=O)(=O)N2CCOCC2)cc1)S(C)(=O)=O
AC50 (Vero): 29.5 µM (active)

COC(=O)CCCC1=CC2=CC(=O)C(C)(OC(=O)c3cccs3)C(=O)C2=CN1C1CCCC1 (stereo not drawn)
IC50 [22]: 7.97 µM (active) | IC50 [23]: 5.99 µM (active)

Cc1c(C(=O)O)sc2nc(CSc3ncc(C(F)(F)F)cc3Cl)nc(O)c12
AC50 [24]: > 52 µM (inactive)

CC(=C/c1ccccc1)/C=N/n1c(S)nnc1-c1ccncc1
IC50 (Beta-lactamase [25]): > 59.6 µM (inactive) | IC50 (Beta-lactamase [26]): > 59.6 µM (inactive) | IC50 (Beta Lactamase [27]): > 59.6 µM (inactive) | IC50 (Beta-lactamase [28]): > 59.6 µM (inactive) | IC50 (Beta Lactamase [29]): 3.26 µM (active) | IC50 [30]: > 100 µM (inactive) | IC50 [31]: 2.33 µM (active) | AC50 (HEK293): 5.9 µM (active)

Reference: ChEMBL document CHEMBL1201862, “PubChem BioAssay data set” (2004)
